Counter-ions that a name gives are not always drawn. Like-named read-outs stand apart in the source and are kept apart here.
Experiments:
[1] = Rat blood-brain barrier evaluation; assay type: in vivo; settings: SD rats, intragastric 10 mg/kg; for concentrations in brain tissues (in words): over time
Protocol: (1) Animal Administration and Sampling Method:
The study compound A1, the compound A41 and PXS-4728 were dissolved in normal saline to prepare solutions. The prepared solutions were separately administered by intragastric administration to SD rats at a dose of 10 mg/kg. […] At each time point, samples were collected from three SD rats.
On the day of the study, the animals were fixed to collect 0.15 mL of blood from the jugular vein at each set time point, and the whole blood samples were put into anticoagulation tubes containing EDTA-K2. After blood sampling was completed, heart perfusion was immediately performed for the animals, and following the heart perfusion, brain tissue samples were collected.
After the whole blood samples were centrifuged under the condition of 1,524 g for 10 min, top plasma samples were collected into sample tubes. The tissue samples were weighed, added with 20% of aqueous methanol solution at a weight-to-volume ratio of 1:5 (tissue:homogenate) and homogenized. The biological samples were stored at −40° C. to −20° C. for analysis.
(4) Sample Analysis Method:
(§1) Plasma sample: The samples to be tested were taken out of the refrigerator, naturally thawed at room temperature and then swirled for 5 min, and 20 μL of plasma sample was accurately pipetted into 1.5 mL centrifuge tubes. 100 μL of internal standard working solution (solution of 5 ng/mL verapamil and 50 ng/mL glibenclamide in acetonitrile) was added, and uniform mixing was performed. After 1 min of swirling, centrifugation was performed at 13,000 rpm for 8 min. 40 μL of supernate was accurately pipetted into a 96-well plate added with 160 μL water/well in advance. Uniform mixing was performed by swirling for 10 min, followed by LC-MS/MS assay.
as §1, with “Brain tissue” for “Plasma”, “50” for “20”, “250” for “100”, “30” for “40”, “150” for “160”
(5) Data Processing Method:
Analyst 1.6.2 from AB Sciex was used to output concentration results of tested compounds. Microsoft Excel was used to calculate parameters such as mean value, standard deviation and variation coefficient (excluding those outputted directly by Analyst 1.6.2).

rhVAP-1 = target: T1, rhVAP-1 (Homo sapiens, UniProt Q16853); test: Inhibitory activity against rhVAP-1 enzyme (Biological Example 1); assay type: biochemical; settings: Table 1; benzylamine substrate, Amplex Red/HRP
T1 construct: purchased PeproTech
T1 sequence (Q16853 27-763 limits assumed): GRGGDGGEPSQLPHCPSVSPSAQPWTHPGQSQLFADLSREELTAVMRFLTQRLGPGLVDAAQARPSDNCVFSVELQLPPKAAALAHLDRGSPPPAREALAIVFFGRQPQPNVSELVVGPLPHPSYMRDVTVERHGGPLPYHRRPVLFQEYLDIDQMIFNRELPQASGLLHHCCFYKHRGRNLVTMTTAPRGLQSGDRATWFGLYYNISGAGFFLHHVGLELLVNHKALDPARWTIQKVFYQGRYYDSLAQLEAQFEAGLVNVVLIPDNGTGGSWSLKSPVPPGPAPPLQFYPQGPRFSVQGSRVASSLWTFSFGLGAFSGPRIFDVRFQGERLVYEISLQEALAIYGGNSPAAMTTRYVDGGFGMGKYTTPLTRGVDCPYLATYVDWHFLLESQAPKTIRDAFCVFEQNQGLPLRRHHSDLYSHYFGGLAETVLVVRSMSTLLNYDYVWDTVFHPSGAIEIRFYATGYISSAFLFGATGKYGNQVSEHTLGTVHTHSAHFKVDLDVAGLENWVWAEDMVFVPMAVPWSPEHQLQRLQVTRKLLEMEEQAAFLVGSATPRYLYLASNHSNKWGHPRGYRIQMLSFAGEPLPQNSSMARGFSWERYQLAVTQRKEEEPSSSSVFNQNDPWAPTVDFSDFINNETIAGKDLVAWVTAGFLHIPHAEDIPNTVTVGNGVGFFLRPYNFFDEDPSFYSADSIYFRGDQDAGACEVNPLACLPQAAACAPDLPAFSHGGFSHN
Protocol: 1. Inhibitory Activity of Compounds Against rhVAP-1 Enzyme
(1) Instrument, Consumable and Reagent
Multifunctional microplate reader (MD, FlexStation3), black unclear-bottom 96-well plate (Corning), and rhVAP-1 (PeproTech)
(2) Preparation of Concentration Gradient Compound Solutions
An appropriate amount of the compound to be tested was taken, dissolved in DMSO to 10 mM and then stored. Before the study, an appropriate amount of mother liquor of the 10 mM compound to be tested was diluted with DMSO, so that 1 mM solution was obtained. The solution was then gradiently diluted 3-fold with DMSO, 10 concentration gradients in total. PBS was then used to carry out 100-fold dilution, so that compound solutions of 10× series of concentrations were prepared.
(3) Preparation of Enzyme Solutions
An appropriate amount of protein diluent was added into rhVAP-1 powder, obtaining 1 mg/mL of mother liquor for storage. Before the study, PBS was used to carry out dilution to obtain enzyme solutions of 4× concentrations.
(4) Preparation of Substrate Mixtures of 2× Concentrations
An appropriate amount of benzylamine was weighed and dissolved with PBS to obtain 200 mM of benzylamine solution. The benzylamine solution was added with 2 mM of Amplex Red mother liquor and 500 U/mL of HRP mother liquor and diluted with PBS to obtain substrate mixtures of 2× concentrations.
10 μL compound solutions of different concentrations, 25 μL rhVAP-1 enzyme solutions of 4× concentrations and 15 μL of PBS were first added into a 96-well plate, shaken to be mixed uniformly and then incubated at 37° C. for 30 min. 50 μL substrate mixtures of 2× concentrations were then added into each well, and the microplate reader was immediately used to detect fluorescence intensity of each well with 565 nm exciting light and 590 nm emission light for 5 min each time, 25 min in total. […]
V: fluorescence change rate; Ft: fluorescence reading at time point t; F0: initial fluorescence reading; Time: duration t; Vcmpd: fluorescence change rate of tested compound; Vmax: Max hole fluorescence change rate. […]

[2] = rat, plasma, oral, 0.167 h, read-out: Average Plasma concentration (N=3)
[3] = rat, plasma, oral, 1 h, read-out: Average Plasma concentration (N=3)
[4] = rat, plasma, oral, 6 h, read-out: Average Plasma concentration (N=3)

Compound	Average Brain tissue concentration (N=3) ([1]; 0.167 h)	Average Brain tissue concentration (N=3) ([1]; 1 h)	Average Brain tissue concentration (N=3) ([1]; 6 h)	concentrations in brain tissues (in words) [1]	concentration at 0.167 h [1, 2] [ng/mL]	concentration at 1 h [1, 3] [ng/mL]	concentration at 6 h [1, 4] [ng/mL]	IC50 (rhVAP-1) [nM]	Mean brain tissue/plasma concentration ratio ([1]; 0.167 h)	concentration at 1 h ([1]; rat, brain, oral, 1 h, read-out: Average Brain tissue concentration (N=3)) [ng/g]	concentration at 6 h ([1]; rat, brain, oral, 6 h, read-out: Average Brain tissue concentration (N=3)) [ng/g]	Kp at 1 h ([1]; rat, brain/plasma, oral, 1 h, read-out: Mean brain tissue/plasma concentration ratio)	Kp at 6 h ([1]; rat, brain/plasma, oral, 6 h, read-out: Mean brain tissue/plasma concentration ratio)
NC/C(=C\F)Cn1cc2c(=O)n(C3CC3)ccc2n1 [Compound A41, (E)-2-(2-(aminomethyl)-3-fluoroallyl)-5-cyclopropyl-2,5-dihydro-4H-pyrazolo[4,3-c]pyridin-4-one]	BLOQ	BLOQ	BLOQ	below the limit of detection	624	1750	39.7	–	–	–	–	–	–
NC/C(=C\F)Cn1ncc2c1CCN(C1CC1)C2=O [Compound A2 hydrochloride, (E)-1-(2-(aminomethyl)-3-fluoroallyl)-5-cyclopropyl-1,5,6,7-tetrahydro-4H-pyrazolo[4,3-c]pyridin-4-one]	–	–	–	–	–	–	–	73	–	–	–	–	–
NC/C(=C\F)Cn1cc2c(n1)CCN(C1CC1)C2=O [Compound A1, (E)-2-(2-(aminomethyl)-3-fluoroallyl)-5-cyclopropyl-2,5,6,7-tetrahydro-4H-pyrazolo[4,3-c]pyridin-4-one]	BLOQ	–	–	below the limit of detection	158	1300	80.7	38	0←	39.1	31.3	0.03	0.39

Reference: US12371432B2, “Haloallylamine compounds and application thereof” (TransThera Sciences (Nanjing), Inc., priority 2019, dated 2025)
